ChEMBL document CHEMBL1201862, “PubChem BioAssay data set” (2004)
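Step 1: Grow cells in 96-well plates. Step 2: Expose to compound for 48 hours at 5 concentrations. Step 3: Interpolate endpoints linearly; if unreached, use highest concentration. GI50: concentration for 50% inhibition of growth.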 Active and inactive are the calls of the source. Rule as the data show it: active = GI50 up to about 1.1 µM and inactive = higher.

Key:
Test in all cases: NCI anticancer screen, dose series, 48 h
[1] = tested on: 786-0
[2] = tested on: A498
[3] = tested on: A549
[4] = tested on: ACHN
[5] = tested on: CAKI-1
[6] = tested on: CCRF-CEM
[7] = tested on: COLO 205
[8] = tested on: DMS-114
[9] = tested on: DMS-273
[10] = tested on: EKVX
[11] = tested on: HCC 2998
[12] = tested on: HCT-116
[13] = tested on: HCT-15
[14] = tested on: HL-60
[15] = tested on: HOP-62
[16] = tested on: HOP-92
[17] = tested on: HT-29
[18] = tested on: IGROV-1
[19] = tested on: K562
[20] = tested on: KM-20L2
[21] = tested on: LXFL 529
[22] = tested on: M14
[23] = tested on: M19-MEL
[24] = tested on: MOLT-4
[25] = tested on: Malme-3M
[26] = tested on: NCI-H522
[27] = tested on: OVCAR-3
[28] = tested on: OVCAR-8
[29] = tested on: RXF 631
[30] = tested on: SF-268
[31] = tested on: SF-295
[32] = tested on: SF-539
[33] = tested on: SK-MEL-28
[34] = tested on: SK-MEL-5
[35] = tested on: SK-OV-3
[36] = tested on: SN12C
[37] = tested on: SNB-19
[38] = tested on: SNB-75
[39] = tested on: SNB-78
[40] = tested on: SR
[41] = tested on: SW-620
[42] = tested on: U-251
[43] = tested on: UACC-62
[44] = tested on: UO-31
[45] = tested on: XF498
[46] = tested on: DLD-1
[47] = tested on: HOP-18
[48] = tested on: LOX IMVI
[49] = tested on: NCI-H226
[50] = tested on: NCI-H23
[51] = tested on: NCI-H460
[52] = tested on: OVCAR-4
[53] = tested on: OVCAR-5
[54] = tested on: RPMI-8226
[55] = tested on: TK-10
[56] = tested on: UACC-257
[57] = tested on: KM12
[58] = tested on: SK-MEL-2
[59] = tested on: RXF 393

Measured: GI50

CN(C(=O)C12C3C4C1C1C2C3C41C(=O)N(C)C(C)(C)C)C(C)(C)C (configuration not stated)
> 50 µM: [13]
inactive: [1] > 50 µM | [2] > 50 µM | [3] > 50 µM | [4] > 50 µM | [5] > 50 µM | [6] > 50 µM | [7] > 50 µM | [8] > 50 µM | [9] > 50 µM | [10] > 50 µM | [11] > 50 µM | [12] > 50 µM | [14] > 50 µM | [15] > 50 µM | [16] > 50 µM | [17] > 50 µM | [18] > 50 µM | [19] > 50 µM | [20] > 50 µM | [21] > 50 µM | [22] > 50 µM | [23] > 50 µM | [24] > 50 µM | [25] > 50 µM | [26] > 50 µM | [27] > 50 µM | [28] > 50 µM | [29] > 50 µM | [30] > 50 µM | [31] > 50 µM | [32] > 50 µM | [33] > 50 µM | [34] > 50 µM | [35] > 50 µM | [36] > 50 µM | [37] > 50 µM | [38] 21.6 µM | [39] > 50 µM | [40] > 50 µM | [41] > 50 µM | [42] > 50 µM | [43] > 50 µM | [44] > 50 µM | [45] > 50 µM

Cc1ccc(S(=O)(=O)N/N=C2\C(=O)C3CC2C(Cl)C3Cl)cc1 (configuration not stated)
inactive: [1] > 100 µM | [2] > 100 µM | [3] > 100 µM | [4] > 100 µM | [5] > 100 µM | [6] > 100 µM | [7] > 100 µM | [46] > 100 µM | [8] > 100 µM | [9] > 100 µM | [11] > 100 µM | [12] > 100 µM | [14] > 100 µM | [47] > 100 µM | [15] > 100 µM | [16] 70.8 µM | [17] > 100 µM | [18] > 100 µM | [19] > 100 µM | [20] > 100 µM | [48] > 100 µM | [21] > 100 µM | [22] > 100 µM | [24] > 100 µM | [25] > 100 µM | [49] > 100 µM | [50] > 100 µM | [51] > 100 µM | [27] > 100 µM | [52] > 100 µM | [53] > 100 µM | [28] > 100 µM | [54] > 100 µM | [29] > 100 µM | [30] > 100 µM | [31] > 100 µM | [33] > 100 µM | [34] > 100 µM | [35] > 100 µM | [36] > 100 µM | [37] > 100 µM | [38] 55 µM | [40] > 100 µM | [41] > 100 µM | [55] > 100 µM | [42] > 100 µM | [56] > 100 µM | [43] > 100 µM | [44] > 100 µM
> 100 µM: [13]

O=C(NCCc1ccccc1)C1C(=O)C(=O)N(CCc2ccccc2)C1=O (configuration not stated)
inactive: [1] > 100 µM | [3] > 100 µM | [4] > 100 µM | [5] > 100 µM | [6] > 100 µM | [46] > 100 µM | [9] > 100 µM | [10] > 100 µM | [12] > 100 µM | [14] > 100 µM | [16] > 100 µM | [17] > 100 µM | [18] > 100 µM | [19] > 100 µM | [20] > 100 µM | [57] > 100 µM | [48] > 100 µM | [21] > 100 µM | [22] > 100 µM | [23] > 100 µM | [24] > 100 µM | [25] > 100 µM | [49] > 100 µM | [50] > 100 µM | [26] > 100 µM | [27] > 100 µM | [54] > 100 µM | [29] > 100 µM | [30] > 100 µM | [31] > 100 µM | [32] > 100 µM | [33] > 100 µM | [58] > 100 µM | [35] 48.4 µM | [36] > 100 µM | [37] > 100 µM | [38] > 100 µM | [39] > 100 µM | [40] > 100 µM | [41] > 100 µM | [55] > 100 µM | [42] > 100 µM | [56] > 100 µM | [43] > 100 µM | [44] > 100 µM | [45] > 100 µM
> 100 µM: [13]

COc1ccc2oc(-c3ccncc3)cc(=O)c2c1
inactive: [1] > 100 µM | [2] > 100 µM | [4] > 100 µM | [5] 33.2 µM | [6] 81.1 µM | [7] > 100 µM | [46] > 100 µM | [8] > 100 µM | [9] 62.8 µM | [11] > 100 µM | [12] > 100 µM | [14] > 100 µM | [15] > 100 µM | [16] 37.5 µM | [17] > 100 µM | [18] 82 µM | [19] > 100 µM | [57] 84.5 µM | [48] 57.5 µM | [21] > 100 µM | [22] > 100 µM | [24] 25.2 µM | [25] 39.8 µM | [49] > 100 µM | [50] > 100 µM | [51] > 100 µM | [27] > 100 µM | [52] > 100 µM | [53] > 100 µM | [54] > 100 µM | [59] > 100 µM | [29] 40.5 µM | [30] 67.6 µM | [31] > 100 µM | [33] > 100 µM | [58] > 100 µM | [36] 38.7 µM | [37] > 100 µM | [38] > 100 µM | [42] 73.3 µM | [56] > 100 µM | [43] 65.2 µM | [44] > 100 µM | [45] > 100 µM
> 100 µM: [13]
